What was measured:
[1] = tested on: osteoclast precursor cells; assay: Differentiation of osteoclast precursor cells isolated from bone, ODF and M-CSF (TRAP staining); assay type: cell-based, ICR mice; conditions: for TRAP-positive osteoclast cell number: osteoclast precursor cells, ODF 100 ng/ml, M-CSF 30 ng/ml, day 9, control 344±43.7
Description: (§1) Primary osteoblasts, bone marrow cells and osteoclast precursor cells were cultured in α-Minimum Essential Medium (α-MEM, Gibco BRL) supplemented with 10% (v/v) fetal bovine serum (Gibco BRL), and 1× antibiotics containing penicillin/streptomycin (Gibco BRL).
Osteoclast progenitors derived from bone marrow cells migrate eventually to bone, differentiate to osteoclast precursors therein, and further differentiate to active osteoclasts having bone resorption ability and participate in bone resorption. That is, osteoclast precursor cells present in bone are at a different differentiation stage from the active osteoclasts. Recently, a cytokine playing a critical role in osteoclast differentiation was identified to be ODF (also called OPGL or RANKL), and a recombinant ODF protein can be produced on a large scale, thereby facilitating osteoclast differentiation by primary cell culture.
Osteoclast precursor cells were isolated from […]. After sacrificing 5-6 week ICR female mice by cervical dislocation and disinfecting their rear legs in 70% ethanol, tibias and femurs were isolated aseptically. After removing soft tissue according to the same method as in Example 2 from the isolated tibias and femurs, 3× HBSS (Gibco BRL) was injected into bone marrow several times, thereby collecting bone marrow cells, as follows. Bone was cut into small pieces using a surgical scissor, and incubated in a collagenase solution (1 mg/ml collagenase type II, 0.05% trypsin, 4 mM EDTA, Gibco BRL) contained in a culture dish at 37° C. for 15 min. The collagenase treatment was carried out 4 more times. After being treated three times, bone pieces were further cut into a smaller size. After one more treatment with collagenase, the bone pieces were washed with 3× HBSS five times. After completely removing the enzyme solution by centrifugation, the bone pieces were suspended in pre-cooled α-MEM, and placed onto ice for 15 min. After vortexing for 1 min, an equal volume of α-MEM was added to the bone suspension, followed by incubation on ice for 15 min. The bone suspension was filtered through a sterilized mass, and the obtained cells were cultured in 10% FBS-containing α-MEM.
The isolated and cultured osteoclast precusor cells were plated onto a 48-well plate at a density of 0.5×10^6 cells. After adding ODF (100 ng/ml) and M-CSF (30 ng/ml) to the medium, the cells were treated with the CHJ-0014 compound at various concentrations of 0.825 μM, 1.65 μM, 3.3 μM and 6.6 μM. A group not treated with the CHJ-0014 compound was used as a control. When the culture medium was exchanged with a fresh medium after incubation for 3 days, the cells were again treated with the identical amount of ODF, M-CSF and CHJ-0014. On day 6 after culturing, the culture medium was exchanged with a fresh medium, according to the same method as in on day 3. On day 9, TRAP staining was carried out, and TRAP-positive osteoclasts were counted under an optical microscope (×100).

[2] = tested on: differentiation of osteoclasts in culture of bone marrow cells; assay: Osteoclast differentiation in culture of bone marrow cells induced by ODF and M-CSF (TRAP staining); assay type: cell-based, ICR mice; conditions: for TRAP-positive osteoclast cell number: bone marrow cells, ODF 50 ng/ml, M-CSF 30 ng/ml, control 240±44
Description: as §1
(§2) After sacrificing 6-7 week ICR female mice by cervical dislocation and disinfecting their rear legs in 70% ethanol, tibias were isolated aseptically. The isolated tibias were placed into 3× HBSS (Gibco BRL), and soft tissue was completely removed. Both ends of tibias were cut, and 1×α-MEM was injected into bone marrow and then sucked up using a 1 ml syringe, collecting bone marrow cells. After sufficient suspending by pipetting, the collected bone marrow cells were centrifuged at 1600 rpm for 5 min to harvest cells. The resulting pellet (bone marrow cells and erythrocytes) was suspended in about 15-20 ml of ACK buffer (155 mM NH4Cl, 11 mM KHCO3, 0.01 mM EDTA). After incubation for 2 min, phosphate buffer was added to the cell suspension to minimize damage to bone marrow cells and lyse erythrocytes.
(§3) Thereafter, the cell suspension was centrifuged (1600 rpm, 5 min), and the resulting cell pellet was suspended in 10% FBS-containing α-MEM.
In this test, to evaluate this possible scenario, only bone marrow cells were treated with a recombinant ODF protein and inhibitory activity of the CHJ-0014 compound on osteoclast differentiation was investigated in culture of only bone marrow cells. Bone marrow cells, isolated according to the same method as in Experimental Example 1, were plated onto a 48-well plate at a density of 4×10^5 cells, and cultured in 10% FBS-containing α-MEM. After adding ODF (50 ng/ml) and M-CSF (30 ng/ml) to the medium, the cells were treated with the CHJ-0014 compound at various concentrations of 0.825 μM, 1.65 μM, 3.3 μM and 6.6 μM. When the culture medium was exchanged with a fresh medium after incubation for 3 days, the cells were again treated with the identical amount of ODF, M-CSF and CHJ-0014. After incubation for 6 days, the culture medium was exchanged with a fresh medium, and the cells were further cultured for 2 more days.
Completely differentiated osteoclasts were identified by TRAP staining. TRAP staining was carried out using the Leukocyte Acid Phosphatase Kit (Sigma, Cat. No. 387-A). The culture medium was removed, and completely differentiated osteoclasts were fixed with 10% formalin for 5 min. After removing formalin, the fixed osteoclasts were treated with 0.1% Trypton X-100 for 10 sec. After removing Trypton X-100, the cells were stained with a TRAP staining solution in the kit for 5 min. After eliminating the TRAP staining solution, the cells were washed with distilled water twice, dried, and TRAP-positive osteoclasts were counted under an optical microscope (×100).

[3] = tested on: osteoblasts; assay: Cytotoxicity by MTT assay, osteoblasts; assay type: cell-based, ICR mice; conditions: 6.6 μM, 24 hrs
[4] = tested on: transcription factor NF-κB; assay: NF-κB activity by EMSA (electrophoresis mobility shift assay) in osteoclasts; assay type: cell-based; conditions: osteoclast nuclear extract
Description: The CHJ-0014 compound was investigated for its inhibitory effect on the activity of the transcription factor NF-κB participating in osteoclast differentiation by performing EMSA (electrophoresis mobility shift assay). Osteoclasts were prepared according to the same method as in Experimental Experiment 3, and incubated in hypotonic lysis buffer (10 mM HEPES, pH 7.9, 1.5 mM MgCl2, 10 mM KCl, 0.5 mM DTT, 0.5 mM PMSF) on ice for 10 min. The osteoclast-containing solution was transferred into a microcentrifuge, supplemented with 0.1% NP40, and incubated for 15 min with occasional agitation. After centrifugation (4,000 rpm, 15 min), the resulting cell pellet was suspended in 15 μl of high salt buffer (20 mM HEPES, pH 7.9, 420 mM NaCl, 25% glycerol, 1.5 mM MgCl2, 0.2 mM EDTA, 0.5 mM PMSF, 0.5 mM DTT), and placed onto ice for 20 min. 75 μl of storage buffer (20 mM HEPES, pH 7.9, 100 mM NaCl, 20% glycerol, 0.2 mM EDTA, 0.5 mM PMSF, 0.5 mM DTT) was added to the cell suspension, and incubated with agitation for 10 sec. After centrifugation (14,000 rpm, 20 min), the resulting supernatant was subjected to protein quantitative assay. Protein assay was performed using a DC Protein Assay Kit (Bio-Rad).
A NF-κB-specific oligomer (5′-AGTTGAGGGGACTTTCCCA GGC-3′, Santa Cruz) was radiolabeled using [γ-^32P]ATP and […], and used as a probe. […]

[5] = tested on: differentiation of osteoclasts in co-culture of bone marrow cells and osteoblasts; assay: Osteoclast differentiation in co-culture of osteoblasts and bone marrow cells (TRAP staining); assay type: cell-based, ICR mice; conditions: for TRAP-positive osteoclast cell number: co-culture, vitamin D3 and PGE2, 6 days, control 397+36.75; for Inhibitory activity on osteoclast differentiation in co-culture of bone marrow cells and osteoblasts: 4 μM
Description: as §1
Until now, osteoclast cell lines have not been established, making it difficult to study differentiation of osteoclasts. Osteoclasts originate from hematopoietic stem cells derived from bone marrow, and differentiate with the help of osteoblasts/stromal cells. For these reasons, the co-culture system of osteoblasts and bone marrow cells is used for differentiation of osteoclasts. In these Experimental Examples, a differentiation system of bone marrow cells to osteoclasts was established by co-culture of osteoblasts and bone marrow cells, and, in this system, the CHJ-0014 compound was evaluated for its inhibitory effect on differentiation of osteoclasts.
After sacrificing one-day postnatal ICR mice and disinfecting them in 70% ethanol, calvarias were collected using surgical scissors and forceps, cut into several pieces, and transferred into 3× HBSS contained in a 60-mm culture dish. 0.1% collagenase (Gibco BRL) and 0.2% dispase (Boehringer Mannheim) were added to the solution, followed by incubation at 37° C. for 15 min. The treatment of calvarias with collagenase and dispase was repeated 4 more times. From the second treatment of calvarias with collagenase and dispase, the solution was centrifuged after each treatment at 1600 rpm for 5 min to harvest cells, thereby collecting osteoblasts. The collected osteoblasts were plated onto a 100-mm culture dish at a density of about 1-2×10^6 cells, and cultured in 15 ml of α-MEM supplemented with 10% FBS for 3 days. Thereafter, the proliferated osteoblasts were aliquotted into cryo-vials, and stored in liquid nitrogen until use in co-culture of osteoblasts and bone marrow cells.
as §2, §3
The isolated and cultured osteoblasts and bone marrow cells were co-cultured, as follows. Bone marrow cells and osteoblasts were plated onto a 48-well plate at a density of 2×10^5 cells and 2×10^4 cells per well, respectively, and co-cultured in 10% FBS-containing x-MEM. After adding vitamin D3 (10^−8 M) and PGE 2 (Prostaglandin E 2, 10^−6 M) to the culture medium, the cells were treated with the CHJ-0014 compound at various concentrations of 1.65 μM, 3.3 μM and 6.6 μM. A co-culture group not treated with the CHJ-0014 compound was used as a control. When the culture medium was exchanged with a fresh medium after incubation for 3 days, vitamin D3 (10^−8 M) and PGE 2 (10^−6 M) were again added to the medium, and the CHJ-0014 compound was also added to the medium at the same concentrations as above.
After incubation for 6 days, the culture medium was removed, and completely differentiated osteoclasts were fixed with 10% formalin for 5 min. After removing formalin, the fixed osteoclasts were treated with 0.1% Triton X-100 for 10 sec. […]

[6] = tested on: murine bone marrow cells; assay: Cytotoxicity by MTT assay, bone marrow cells; assay type: cell-based; conditions: 6.6 μM, 24 hrs
[7] = tested on: human embryonic kidney cell line 293T; assay: Cytotoxicity by MTT assay, 293T cells; assay type: cell-based; conditions: 6.6 μM, 24 hrs
[8] = tested on: peritoneal macrophages; assay: Cytotoxicity by MTT assay, peritoneal macrophages; assay type: cell-based; conditions: 6.6 μM, 24 hrs

| SMILES | TRAP-positive osteoclast cell number ([1]; 0.825 μM) | TRAP-positive osteoclast cell number ([1]; 1.65 μM) | TRAP-positive osteoclast cell number ([1]; 3.3 μM) | TRAP-positive osteoclast cell number ([1]; 6.6 μM) | Effect on osteoclast differentiation during differentiation of osteoclast precursors isolated from bone ([1]; 0.825-6.6 μM) | TRAP-positive osteoclast cell number ([2]; 0.825 μM) | TRAP-positive osteoclast cell number ([2]; 1.65 μM) | TRAP-positive osteoclast cell number ([2]; 3.3 μM) | TRAP-positive osteoclast cell number ([2]; 6.6 μM) | Effect on osteoclast differentiation induced by ODF in bone marrow cells ([2]; 0.825-6.6 μM) | Cytotoxicity (MTT) [3] | Effect on activation of the transcription factor NF-κB by osteoclast differentiation factor (ODF) [4] | TRAP-positive osteoclast cell number ([5]; 1.65 μM) | TRAP-positive osteoclast cell number ([5]; 3.3 μM) | Inhibitory activity on osteoclast differentiation in co-culture of bone marrow cells and osteoblasts [5] | TRAP-positive osteoclast cell number ([5]; 6.6 μM) | Effect on differentiation of osteoclasts in co-culture of bone marrow cells and osteoblasts ([5]; 1.65-6.6 μM) | Cytotoxicity (MTT) [6] | Cytotoxicity (MTT) [7] | Cytotoxicity (MTT) [8] |
| --- | --- | --- | --- | --- | --- | --- | --- | --- | --- | --- | --- | --- | --- | --- | --- | --- | --- | --- | --- | --- |
| CCCCCCCCCCCCCCCCCC(=O)NC(CO)COP(=O)(O)OCC[N+](C)(C)C [CHJ-0014, N-stearoyl-O-phosphocholine-D-serine methylhydroxy] | 318±19.3 | 318±50.4 | 267±24 | 152±29.1 | inhibits osteoclast differentiation during differentiation of osteoclast precursors isolated from bone in a dose-dependent manner | 185±12.9 | 172+9.3 | 87+3.5 | 36+3.6 | inhibits osteoclast differentiation induced by ODF in bone marrow cells in a dose-dependent manner | did not show cytotoxicity | suppress activation of the transcription factor NF-κB | 80±6.1 | 46±4.7 | inhibit osteoclast differentiation | 16±6.4 | inhibits differentiation of osteoclasts in co-culture of bone marrow cells and osteoblasts in a dose-dependent manner | did not show cytotoxicity | did not show cytotoxicity | did not show cytotoxicity |
| CCCCCCCCCCCCCCCCCC(=O)NC(CO)COP(=O)([O-])OCC[N+](C)(C)C [CHJ-0013, N-stearoyl-O-phosphocholine-L-serine methylhydroxy] | – | – | – | – | – | – | – | – | – | – | – | – | – | – | inhibit osteoclast differentiation | – | – | – | – | – |

Reference: patent publication US20050014722A1, “Process for preparing n-acylated lysophosphatidylcholine and pharmaceutical composition for treatment of metabolic bone disease comprising said compounds” (priority 2001, published 2005)
